The text below walks through data of US8895509B2, “MIR-200 family induces mesenchymal-to-epithelial transition (MET) in ovarian cancer cells” (Georgia Tech Research Corporation, priority 2010, dated 2014).

pIC50: −log10 of the molar value.

In this assay the test system is HEY cells. Kind of assay: sensitivity of transfected HEY cells to cisplatin. The assay is classed as cell-based, human. As to conditions: cisplatin 0.1-50 μM. How it is done:
Cultures of the mesenchymal HEY cells were transfected with a negative control (NC) miRNA or miR-429 using Lipofectamine 2000 (Invitrogen) and treated with increasing concentrations of cisplatin. (0.1, 0.5, 1, 3, 5, 7, 10, 15, 20, 30, 50 μM).

Turning to `N.N.[Cl][Pt][Cl]` [cisplatin], the pIC50 (HEY cells transfected with miR-429) is 5.34 and the pIC50 (HEY cells transfected with negative control (NC) miRNA) was 5.06.
